Data from US20100120730A1, “6-BENZYL-2,3,4,7-TETRAHYDRO-INDOLO [2,3-C] QUINOLINE COMPOUNDS USEFUL AS PDE5 INHIBITORS” (NYCOMED GmbH, priority 2007, published 2010).

Key:
human PDE5 = molecular target: T1, human PDE5 (Homo sapiens, UniProt O76074); test: Inhibition of PDE5 activity (modified SPA test, human platelet lysate); type: biochemical; settings: PDE5-containing human platelet lysate, 0.5 μM cGMP substrate, 37° C.
T1 construct: from tissue; host or cells: human platelets from fresh donor blood (10,000 g supernatant of sonified platelets)
Method: As a source for human PDE5, platelets were used. For that purpose, 150 ml fresh blood from human donors anticoagulated with citrate [final concentration 0.3% (w/v)] was centrifuged at 200 g for 10 min to obtain the so-called platelet-rich-plasma (PRP) as a supernatant. 1/10 volume of ACD solution (85 mM Na3-citrate, 111 mM D-glucose, 71 mM citric acid, pH 4.4) was added to 9/10 volume of PRP. After centrifugation (1,400 g, 10 min) the cell pellet was resuspended in 3 ml homogenization buffer (NaCl 140 mM, KCl 3.8 mM, EGTA 1 mM, MgCl2 1 mM, Tris-HCl 20 mM, beta-mercaptoethanol 1 mM, pH 8.2) plus protease-inhibitor mix giving rise to the final concentrations of 0.5 mM Pefablock (Roche), 10 μM Leupeptin, 5 μM Trypsininhibitor, 2 mM Benzamidin and 10 μM Pepstatin A. The suspension was sonified and thereafter centrifuged for 15 min at 10,000 g. The resulting supernatant (platelet lysate) was used for enzymatic testings.
PDE5A1 activity is inhibited by the compounds of the invention in a modified SPA (scintillation proximity assay) test, supplied by Amersham Biosciences (see procedural instructions “phosphodiesterase [3H]cAMP SPA enzyme assay, code TRKQ 7090”), carried out in 96-well microtitre plates (MTP's). The test volume is 100 μl and contains 20 mM Tris buffer (pH 7.4), 0.1 mg of BSA (bovine serum albumin)/ml, 5 mM Mg^2+, 1 μM motapizone, 10 nM PDE2 inhibitor BAY-60-7550, 0.5 μM cGMP (including about 50,000 cpm of [3H]cGMP as a tracer), 1 μl of the respective compound dilution in dimethylsulfoxide (DMSO) and sufficient PDE5-containing platelet lysat (10,000×g supernatant, see above) to ensure that 10-20 wt % of the cGMP is converted under the said experimental conditions. […] After a preincubation of 5 min at 37° C., the reaction was started by adding the substrate (cGMP) and the assay was incubated for a further 15 min; after that, it was stopped by adding SPA beads (50 μl). In accordance with the manufacturer's instructions, the SPA beads had previously been resuspended in water, but were then diluted 1:3 (v/v) in water; the diluted solution also contains 3 mM 8-methoxymethyl-3-isobutyl-1-methylxanthine (IBMX) to ensure a complete PDE activity stop. After the beads have been sedimented (>30 min), the MTP's are analyzed in commercially available luminescence detection devices. The corresponding IC50 values of the compounds for the inhibition of PDE activity are determined from the concentration-effect curves by means of non-linear regression.

Row | IC50 (human PDE5) | melting point | SMILES
1 | 5.13 nM | 232 to 234 °C | CC1(C)CC(=O)c2c(nc(Cc3cccc(N)c3)c3[nH]c4ccccc4c23)C1 [Example 41, 6-(3-Amino-benzyl)-3,3-dimethyl-2,3,4,7-tetrahydro-indolo[2,3-c]quinolin-1-one]
2 | 16.6 nM | 153 to 154 °C | CC(=O)Nc1ccc(Cc2nc3c(c4c2[nH]c2ccccc24)C(=O)CC(C)(C)C3)cc1 [Example 44, N-[4-(3,3-Dimethyl-1-oxo-2,3,4,7-tetrahydro-1H-indolo[2,3-c]quinolin-6-ylmethyl)-phenyl]-acetamide]
3 | 5.37 nM | 146 °C | COc1ccc(Cc2nc3c(c4c2[nH]c2ccccc24)C(O)CC(C)(C)C3)cc1 (centres unmarked) [Example 47, 6-(4-Methoxy-benzyl)-3,3-dimethyl-2,3,4,7-tetrahydro-1H-indolo[2,3-c]quinolin-1-ol]
4 | 13.2 nM | 204 °C | COc1ccc(Cc2nc3c(c4c2[nH]c2ccccc24)C(O)CCC3)cc1 (centres unmarked) [Example 48, 6-(4-Methoxy-benzyl)-2,3,4,7-tetrahydro-1H-indolo[2,3-c]quinolin-1-ol]
5 | 66.1 nM | 211 °C | OC1CCCc2nc(Cc3ccccc3)c3[nH]c4ccccc4c3c21 (centres unmarked) [Example 49, 6-Benzyl-2,3,4,7-tetrahydro-1H-indolo[2,3-c]quinolin-1-ol]
6 | 5.5 nM | 212 °C | CC1(C)Cc2nc(Cc3ccc(O)cc3)c3[nH]c4ccccc4c3c2C(O)C1 (centres unmarked) [Example 51, 6-(4-Hydroxy-benzyl)-3,3-dimethyl-2,3,4,7-tetrahydro-1H-indolo[2,3-c]quinolin-1-ol]
7 | 20.4 nM | 185 °C | COc1ccc(Cc2c3[nH]c4ccccc4c3c3c([n+]2[O-])CC(C)(C)CC3O)cc1 (centres unmarked) [Example 52, 6-(4-Methoxy-benzyl)-3,3-dimethyl-5-oxy-2,3,4,7-tetrahydro-1H-indolo[2,3-c]quinolin-1-ol]
8 | 89.1 nM | 117 to 119 °C | CC1(C)Cc2nc(Cc3ccc(OC(F)(F)F)cc3)c3[nH]c4ccccc4c3c2C(O)C1 (centres unmarked) [Example 53, 3,3-Dimethyl-6-(4-trifluoromethoxy-benzyl)-2,3,4,7-tetrahydro-1H-indolo[2,3-c]quinolin-1-ol]
9 | 26.9 nM | 206 to 208 °C | CC1(C)Cc2nc(Cc3ccc(N)cc3)c3[nH]c4ccccc4c3c2C(O)C1 (centres unmarked) [Example 54, 6-(4-Amino-benzyl)-3,3-dimethyl-2,3,4,7-tetrahydro-1H-indolo[2,3-c]quinolin-1-ol]
10 | 25.1 nM | 182 to 184 °C | CCOc1ccc(Cc2nc3c(c4c2[nH]c2ccccc24)C(O)CC(C)(C)C3)cc1 (centres unmarked) [Example 55, 6-(4-Ethoxy-benzyl)-3,3-dimethyl-2,3,4,7-tetrahydro-1H-indolo[2,3-c]quinolin-1-ol]
11 | 191 nM | 228 to 230 °C | CC1(C)Cc2nc(Cc3cccc([N+](=O)[O-])c3)c3[nH]c4ccccc4c3c2C(O)C1 (centres unmarked) [Example 56, 3,3-Dimethyl-6-(3-nitro-benzyl)-2,3,4,7-tetrahydro-1H-indolo[2,3-c]quinolin-1-ol]
12 | 4.07 nM | 225 to 227 °C | CC1(C)Cc2nc(Cc3cccc(N)c3)c3[nH]c4ccccc4c3c2C(O)C1 (centres unmarked) [Example 57, 6-(3-Amino-benzyl)-3,3-dimethyl-2,3,4,7-tetrahydro-1H-indolo[2,3-c]quinolin-1-ol]
13 | 148 nM | 112 to 114 °C | CC(C)c1ccc(Cc2nc3c(c4c2[nH]c2ccccc24)C(O)CC(C)(C)C3)cc1 (centres unmarked) [Example 58, 6-(4-Isopropyl-benzyl)-3,3-dimethyl-2,3,4,7-tetrahydro-1H-indolo[2,3-c]quinolin-1-ol]
14 | 70.8 nM | 165 to 168 °C | CCC(=O)Nc1ccc(Cc2nc3c(c4c2[nH]c2ccccc24)C(O)CC(C)(C)C3)cc1 (centres unmarked) [Example 60, N-[4-(1-Hydroxy-3,3-dimethyl-2,3,4,7-tetrahydro-1H-indolo[2,3-c]quinolin-6-ylmethyl)-phenyl]-propionamide]
15 | 7.24 nM | 120 to 123 °C | OC1CCCc2nc(Cc3ccc4c(c3)OCO4)c3[nH]c4ccccc4c3c21 (centres unmarked) [Example 61, 6-Benzo[1,3]dioxol-5-ylmethyl-2,3,4,7-tetrahydro-1H-indolo[2,3-c]quinolin-1-ol]
16 | 50.1 nM | 118 to 125 °C | CC1(C)Cc2nc(Cc3cccc(Br)c3)c3[nH]c4ccccc4c3c2C(O)C1 (centres unmarked) [Example 62, 6-(3-Bromo-benzyl)-3,3-dimethyl-2,3,4,7-tetrahydro-1H-indolo[2,3-c]quinolin-1-ol]
17 | 46.8 nM | 195 to 197 °C | CC(=O)Nc1ccc(Cc2nc3c(c4c2[nH]c2ccccc24)C(O)CC(C)(C)C3)cc1 (centres unmarked) [Example 63, N-[4-(1-Hydroxy-3,3-dimethyl-2,3,4,7-tetrahydro-1H-indolo[2,3-c]quinolin-6-ylmethyl)-phenyl]-acetamide]
18 | 28.8 nM | 187 to 189 °C | CC1(C)Cc2nc(Cc3ccc(F)cc3)c3[nH]c4ccccc4c3c2C(O)C1 (centres unmarked) [Example 64, 6-(4-Fluoro-benzyl)-3,3-dimethyl-2,3,4,7-tetrahydro-1H-indolo[2,3-c]quinolin-1-ol]
19 | 16.6 nM | 121 to 128 °C | CC1(C)Cc2nc(Cc3ccc(F)c(F)c3)c3[nH]c4ccccc4c3c2C(O)C1 (centres unmarked) [Example 66, 6-(3,4-Difluoro-benzyl)-3,3-dimethyl-2,3,4,7-tetrahydro-1H-indolo[2,3-c]quinolin-1-ol]
20 | 7.94 nM | 117 to 123 °C | CC1(C)Cc2nc(Cc3cc(F)cc(F)c3)c3[nH]c4ccccc4c3c2C(O)C1 (centres unmarked) [Example 67, 6-(3,5-Difluoro-benzyl)-3,3-dimethyl-2,3,4,7-tetrahydro-1H-indolo[2,3-c]quinolin-1-ol]
21 | 302 nM | 195 to 197 °C | CC(=O)Nc1ccc(Cc2nc3c(c4c2[nH]c2ccccc24)C(O)CCC3)cc1 (centres unmarked) [Example 69, N-[4-(1-Hydroxy-2,3,4,7-tetrahydro-1H-indolo[2,3-c]quinolin-6-ylmethyl)-phenyl]-acetamide]
22 | 22.9 nM | 236 to 238 °C | CC1(C)Cc2nc(Cc3ccc(NC(N)=O)cc3)c3[nH]c4ccccc4c3c2C(O)C1 (centres unmarked) [Example 70, [4-(1-Hydroxy-3,3-dimethyl-2,3,4,7-tetrahydro-1H-indolo[2,3-c]quinolin-6-ylmethyl)-phenyl]-urea]
23 | 2.51 nM | 118 to 120 °C | COc1ccc(Cc2nc3c(c4c2[nH]c2ccccc24)C(O)CCC3)cc1F (centres unmarked) [Example 71, 6-(3-Fluoro-4-methoxy-benzyl)-2,3,4,7-tetrahydro-1H-indolo[2,3-c]quinolin-1-ol]
24 | 0.2 nM | 131 to 133 °C | COc1c(F)cc(Cc2nc3c(c4c2[nH]c2ccccc24)C(O)CC(C)(C)C3)cc1F (centres unmarked) [Example 73, 6-(3,5-Difluoro-4-methoxy-benzyl)-3,3-dimethyl-2,3,4,7-tetrahydro-1H-indolo[2,3-c]quinolin-1-ol]
25 | 0.324 nM | 197 to 198 °C | COc1ccc(Cc2nc3c(c4c2[nH]c2ccccc24)C(O)CC(C)(C)C3)c(F)c1F (centres unmarked) [Example 74, 6-(2,3-Difluoro-4-methoxy-benzyl)-3,3-dimethyl-2,3,4,7-tetrahydro-1H-indolo[2,3-c]quinolin-1-ol]
